This note sets out measurements from patent US20260042753A1 (Merck Patent GmbH, priority 2019, published 2026).

Assay [1] concerns the target c-Kit(V654A) (Homo sapiens, UniProt P10721, V654A). Kind of assay: c-Kit(V654A) assay. In kind it is biochemical. Conditions: Table 1; 200 μM ATP. The essentials:
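Radiometric filter-binding read-out: after 3% phosphoric acid stop, peptide-incorporated 33P on filtermat scintillation-counted. Enzyme: human c-Kit V654A, residues 544–end, N-terminal GST fusion.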

The target in assay [2] is mutant cKIT (560-576 and V654A) in GIST430/654 cell line (Homo sapiens (Human), UniProt P10721, DEL560-576/V654A). Kind of assay: Cellular testing of cKIT mutant inhibitors: phospho-Y307-cKIT Luminex assay in GIST430/654 cells. It counts as cell-based. Conditions: Table 1; cKIT autophosphorylation, compounds 45 min; read-out: GIST 430/654 IC50. The essentials: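 Autophosphorylation of mutant cKIT at Y307 was quantified by a Luminex bead sandwich assay (total-cKIT capture, phosphospecific detection) after 45 min compound exposure in GIST430/654 cells, cultured in medium containing 100 nM imatinib. Signals were normalised to solvent (0.3% DMSO) controls and dose-response curves fitted for IC50.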

Molecules are shown by their SMILES. pIC50: −log10 of the molar value.

Sequence of mutant cKIT (560-576 and V654A) in GIST430/654 cell line (P10721 other isoform, or with tags, fused parts or gaps V654A/del 1-25/del 560-576 limits assumed): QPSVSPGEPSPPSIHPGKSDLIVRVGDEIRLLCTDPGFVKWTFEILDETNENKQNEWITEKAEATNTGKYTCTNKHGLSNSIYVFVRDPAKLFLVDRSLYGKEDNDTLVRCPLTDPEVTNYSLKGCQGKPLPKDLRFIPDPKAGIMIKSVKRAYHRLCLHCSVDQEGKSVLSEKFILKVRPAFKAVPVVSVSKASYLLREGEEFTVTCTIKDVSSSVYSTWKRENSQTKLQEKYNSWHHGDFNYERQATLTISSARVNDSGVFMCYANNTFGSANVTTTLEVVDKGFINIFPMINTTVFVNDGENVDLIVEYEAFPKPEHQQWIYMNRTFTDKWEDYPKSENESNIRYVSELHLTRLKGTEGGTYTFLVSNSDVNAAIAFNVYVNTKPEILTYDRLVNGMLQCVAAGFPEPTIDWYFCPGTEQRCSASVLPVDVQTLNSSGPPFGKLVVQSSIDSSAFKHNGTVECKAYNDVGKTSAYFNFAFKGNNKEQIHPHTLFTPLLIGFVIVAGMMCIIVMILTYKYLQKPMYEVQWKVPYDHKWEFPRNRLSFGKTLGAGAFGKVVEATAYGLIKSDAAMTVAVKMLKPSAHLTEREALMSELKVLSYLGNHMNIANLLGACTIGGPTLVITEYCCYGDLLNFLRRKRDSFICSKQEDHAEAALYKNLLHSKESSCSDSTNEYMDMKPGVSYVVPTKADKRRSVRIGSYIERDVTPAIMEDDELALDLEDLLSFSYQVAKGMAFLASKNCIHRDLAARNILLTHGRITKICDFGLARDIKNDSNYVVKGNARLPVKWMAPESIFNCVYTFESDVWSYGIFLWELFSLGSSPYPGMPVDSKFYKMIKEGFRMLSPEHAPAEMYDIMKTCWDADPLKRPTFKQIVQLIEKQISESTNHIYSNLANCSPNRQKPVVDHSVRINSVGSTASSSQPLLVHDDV

With `COCCOc1cc2[nH]nc(-c3cc(-c4ccc(C(=O)N5CC(N6CCS(=O)(=O)CC6)C5)cc4)no3)c2cc1F` [A57, 4-[1-(4-{5-[5-fluoro-6-(2-methoxyethoxy)-1H-indazol-3-yl]-1,2-oxazol-3-yl}benzoyl)azetidin-3-yl]-1lambda6-thiomorpholine-1,1-dione], the pIC50 in assay [1] was 8.72; in assay [2], 6.74.
Taken in the same sequence, the figures for `COCCOc1cc2[nH]nc(-c3cc(-c4ccc(C(=O)N5CC[C@@H]5C(C)(C)O)cc4)no3)c2cc1F` [A58, 2-[(2R)-1-(4-{5-[5-fluoro-6-(2-methoxyethoxy)-1H-indazol-3-yl]-1,2-oxazol-3-yl}benzoyl)azetidin-2-yl]propan-2-ol] were 9.11 and 7.28.
Taken in the same sequence, the figures for `COCCOc1cc2[nH]nc(-c3cc(-c4ccc(C(=O)N5CC[C@H]5C(C)(C)O)cc4)no3)c2cc1F` [A59, 2-[(2S)-1-(4-{5-[5-fluoro-6-(2-methoxyethoxy)-1H-indazol-3-yl]-1,2-oxazol-3-yl}benzoyl)azetidin-2-yl]propan-2-ol] were 9.29 and 7.48.
Regarding `COCCOc1cc2[nH]nc(-c3cc(-c4ccc(C(=O)N5CCC6(CC5)COC6)cc4)no3)c2cc1F` [A60, 7-(4-{5-[5-fluoro-6-(2-methoxyethoxy)-1H-indazol-3-yl]-1,2-oxazol-3-yl}benzoyl)-2-oxa-7-azaspiro[3.5]nonane], the pIC50 in assay [1] was 9.36; in assay [2], 7.55.
With `COc1cc2[nH]nc(-c3cc(-c4ccc(C(=O)N5CC(N6CCOCC6)C5)cc4)no3)c2cc1F` [A61, 5-fluoro-6-methoxy-3-(3-{4-[3-(morpholin-4-yl)azetidine-1-carbonyl]phenyl}-1,2-oxazol-5-yl)-1H-indazole], the results for the pIC50 in assay [1] and in assay [2] were 8.26 and 6.96, respectively.
Taken in the same sequence, the figures for `COCCOc1cc2[nH]nc(-c3cc(-c4ccc(C(=O)N5CCC[C@@H]5CO)nc4)no3)c2cc1F` [A62, (5-{5-[5-fluoro-6-(2-methoxy-ethoxy)-1H-indazol-3-yl]-isoxazol-3-yl}-pyridin-2-yl)-((R)-2-hydroxymethyl-pyrrolidin-1-yl)-methanone] were 8.25 and 6.35.
In the same order, the values of `COCCOc1cc2[nH]nc(-c3cc(-c4ccc(C(=O)N5CCC[C@H]5CO)nc4)no3)c2cc1F` [A63, (5-{5-[5-fluoro-6-(2-methoxy-ethoxy)-1H-indazol-3-yl]-isoxazol-3-yl}-pyridin-2-yl)-((S)-2-hydroxymethyl-pyrrolidin-1-yl)-methanone] are 8.24 and 6.54.
Taken in the same sequence, the figures for `COCCOc1cc2[nH]nc(-c3cc(-c4ccc(C(=O)N5CC(N6CCOCC6)C5)cc4)no3)c2cc1Cl` [A64, (4-{5-[5-chloro-6-(2-methoxy-ethoxy)-1H-indazol-3-yl]-isoxazol-3-yl}-phenyl)-(3-morpholin-4-yl-azetidin-1-yl)-methanone] were 9.28 and 7.49.
Turning to `COCCOc1cc2[nH]nc(-c3cc(-c4ccc(C(=O)N5CC(N6CCN(C)CC6)C5)cc4)no3)c2cc1Cl` [A65, (4-{5-[5-chloro-6-(2-methoxy-ethoxy)-1H-indazol-3-yl]-isoxazol-3-yl}-phenyl)-[3-(4-methyl-piperazin-1-yl)-azetidin-1-yl]-methanone], the figures for the pIC50 in assay [1] and in assay [2] were 9.05 and 6.80, respectively.
As for `COCCOc1cc2[nH]nc(-c3cc(-c4ccc(C(=O)N5CCOC[C@@H]5CO)cc4)no3)c2cc1Cl` [A66, (4-{5-[5-chloro-6-(2-methoxy-ethoxy)-1H-indazol-3-yl]-isoxazol-3-yl}-phenyl)-((S)-3-hydroxymethyl-morpholin-4-yl)-methanone], the pIC50 was 9.19 in assay [1] and 7.28 in assay [2].
Taken in the same sequence, the figures for `COCCOc1cc2[nH]nc(-c3cc(-c4ccc(C(=O)N5CCOC[C@H]5CO)cc4)no3)c2cc1Cl` [A67, (4-{5-[5-chloro-6-(2-methoxy-ethoxy)-1H-indazol-3-yl]-isoxazol-3-yl}-phenyl)-((R)-3-hydroxymethyl-morpholin-4-yl)-methanone] were 9.06 and 7.03.
`COCCOc1cc2[nH]nc(-c3cc(-c4ccc(C(=O)N5CCN(C6COC6)CC5)nc4)no3)c2cc1F` [A68, (5-{5-[5-fluoro-6-(2-methoxy-ethoxy)-1H-indazol-3-yl]-isoxazol-3-yl}-pyridin-2-yl)-(4-oxetan-3-yl-piperazin-1-yl)-methanone]: the pIC50 in assay [1] is 7.80; in assay [2], 6.06.
Taken in the same sequence, the figures for `COCCOc1cc2[nH]nc(-c3cc(-c4ccc(C(=O)N5CC(N6CCOCC6)C5)nc4)no3)c2cc1F` [A69, (5-{5-[5-fluoro-6-(2-methoxy-ethoxy)-1H-indazol-3-yl]-isoxazol-3-yl}-pyridin-2-yl)-(3-morpholin-4-yl-azetidin-1-yl)-methanone] were 7.70 and 6.72.
On to `COCCOc1cc2[nH]nc(-c3cc(-c4ccc(C(=O)N5C[C@H]6COC[C@H]6C5)c(C)c4)no3)c2cc1F` [A70, (4-{5-[5-fluoro-6-(2-methoxy-ethoxy)-1H-indazol-3-yl]-isoxazol-3-yl}-2-methyl-phenyl)-(cis)-tetrahydro-furo[3,4-c]pyrrol-5-yl-methanone], for which the pIC50 is 8.68 in assay [1] and 7.09 in assay [2].
In the same order, the values of `COCCOc1cc2[nH]nc(-c3cc(-c4ccc(C(=O)N5C[C@H]6COC[C@H]6C5)c(F)c4)no3)c2cc1F` [A71, (2-fluoro-4-{5-[5-fluoro-6-(2-methoxy-ethoxy)-1H-indazol-3-yl]-isoxazol-3-yl}-phenyl)-(cis)-tetrahydro-furo[3,4-c]pyrrol-5-yl-methanone] are 8.37 and 7.05.
In the same order, the values of `COCCOc1cc2[nH]nc(-c3cc(-c4ccc(C(=O)NCCN(C)C)cc4)no3)c2cc1F` [A72, N-[2-(dimethylamino)ethyl]-4-{5-[5-fluoro-6-(2-methoxyethoxy)-1H-indazol-3-yl]-1,2-oxazol-3-yl}benzamide] are 8.59 and 6.49.
Taken in the same sequence, the figures for `COCCOc1cc2[nH]nc(-c3cc(-c4ccc(C(=O)NC5CN(C)C5)cc4)no3)c2cc1F` [A73, 4-{5-[5-fluoro-6-(2-methoxyethoxy)-1H-indazol-3-yl]-1,2-oxazol-3-yl}-N-(1-methylazetidin-3-yl)benzamide] were 8.40 and 6.37.
Take `COCCOc1cc2[nH]nc(-c3cc(-c4ccc(C(=O)N5CC6(COC6)C5)cc4)no3)c2cc1F` [A74, 5-fluoro-6-(2-methoxyethoxy)-3-[3-(4-{2-oxa-6-azaspiro[3.3]heptane-6-carbonyl}phenyl)-1,2-oxazol-5-yl]-1H-indazole]: the pIC50 in assay [1] was 8.89; in assay [2] it was 7.28.
Taken in the same sequence, the figures for `COCCOc1cc2[nH]nc(-c3cc(-c4ccc(C(=O)N5CC(n6cccn6)C5)cc4)no3)c2cc1F` [A75, 5-fluoro-6-(2-methoxyethoxy)-3-(3-{4-[3-(1H-pyrazol-1-yl)azetidine-1-carbonyl]phenyl}-1,2-oxazol-5-yl)-1H-indazole] were 8.85 and 7.23.
`COCCOc1cc2[nH]nc(-c3cc(-c4ccc(C(=O)N5CC(N(C)C)C5)cc4)no3)c2cc1F` [A76, 1-(4-{5-[5-fluoro-6-(2-methoxyethoxy)-1H-indazol-3-yl]-1,2-oxazol-3-yl}benzoyl)-N,N-dimethylazetidin-3-amine]: the pIC50 in assay [1] is 8.70; in assay [2], 7.10.
With `COCCOc1cc2[nH]nc(-c3cc(-c4ccc(C(=O)N5CC6(CCOC6)C5)cc4)no3)c2cc1F` [A77, 5-fluoro-6-(2-methoxyethoxy)-3-[3-(4-{6-oxa-2-azaspiro[3.4]octane-2-carbonyl}phenyl)-1,2-oxazol-5-yl]-1H-indazole], the pIC50 in assay [1] is 9.00; in assay [2], 7.33.
Turning to `COCCOc1cc2[nH]nc(-c3cc(-c4ccc(C(=O)N5CC[S+]([O-])CC5)cc4)no3)c2cc1F` [A78, 4-(4-{5-[5-fluoro-6-(2-methoxyethoxy)-1H-indazol-3-yl]-1,2-oxazol-3-yl}benzoyl)-1lambda4-thiomorpholin-1-one], the results for the pIC50 in assay [1] and in assay [2] were 9.12 and 6.80, respectively.
Taken in the same sequence, the figures for `COCCOc1cc2[nH]nc(-c3cc(-c4ccc(C(=O)N5CC6(CCO6)C5)cc4)no3)c2cc1F` [A79, 5-fluoro-6-(2-methoxyethoxy)-3-[3-(4-{1-oxa-6-azaspiro[3.3]heptane-6-carbonyl}phenyl)-1,2-oxazol-5-yl]-1H-indazole] were 8.96 and 6.77.
Taken in the same sequence, the figures for `COCCOc1cc2[nH]nc(-c3cc(-c4ccc(C(=O)N5CCS(=N)(=O)CC5)cc4)no3)c2cc1F` [A80, 4-(4-{5-[5-fluoro-6-(2-methoxyethoxy)-1H-indazol-3-yl]-1,2-oxazol-3-yl}benzoyl)-1-imino-1lambda6-thiomorpholin-1-one] were 9.00 and 6.34.
In the same order, the values of `COCCOc1cc2[nH]nc(-c3cc(-c4ccc(C(=O)N5CC(F)C5)cn4)no3)c2cc1F` [A81, 5-fluoro-3-{3-[5-(3-fluoroazetidine-1-carbonyl)pyridin-2-yl]-1,2-oxazol-5-yl}-6-(2-methoxyethoxy)-1H-indazole] are 8.22 and 6.68.
Consider `COCCOc1cc2[nH]nc(-c3cc(-c4ccc(C(=O)N5CC(N6CCOCC6)C5)cn4)no3)c2cc1F` [A82, 5-fluoro-6-(2-methoxyethoxy)-3-(3-{5-[3-(morpholin-4-yl)azetidine-1-carbonyl]pyridin-2-yl}-1,2-oxazol-5-yl)-1H-indazole], for which the pIC50 in assay [1] is 8.01; in assay [2] it was 6.38.
